The values that follow are results of earlier work, collected in article PMC11952222, “Development and comparison of single FLT3-inhibitors to dual FLT3/TAF1-inhibitors as an anti-leukemic approach” (PLOS One, 2025).

The data set deals with TAF1. The settings on record: reference compounds; read-out: TAF1 IC50, literature-reported; cited from earlier work.

In general, IC50 refers to the concentration at which inhibition is half-maximal. On to `Cc1cc2c(cc1N1C(=O)c3cccc4c(CCCO)ccc(c34)C1=O)n(C)c(=O)n2C` [BAY299], for which the IC50 is 8 nM.
